Measured values taken from article PMC12567096, “An Efficacy- and In Vivo Exposure-Oriented Integrated Study to Investigate the Effective Components of Qishen Granule” (Pharmaceuticals, 2025).

Key:
[1] = Concentrations of 24 analytes in QSG treated plasma (Table S5); details: for Exposure level in vivo (in words) / Concentration: QSG treated plasma; for Exposure level in vivo (in words): Table S5; for concentration at 0.5 h / concentration at 1 h / concentration at 0.08 h / concentration at 0.17 h / concentration at 2 h / concentration at 4 h / concentration at 8 h / concentration at 12 h: Sprague Dawley, rat, 7 g/kg; for Concentration: n = 5
[2] = system: H9c2 cells; assay: Cytotoxicity on H9c2 cells (CCK-8); format: cell-based, rat; details: H9c2 cells, n=3; for inhibition at 25 µM / inhibition at 50 µM / inhibition at 100 µM: Rattus norvegicus, read-out: Inhibition rate
Procedure: (§1) Rat myocardial H9c2 cells (purchased from China Infrastructure of Cell Line Resources, Institute of Basic Medical Sciences, Chinese Academy of Medical Sciences) were cultured in DMEM supplemented with 10% fetal bovine serum (FBS), Penicillin (100 U/mL), and Streptomycin (100 μg/mL) at 37 °C under a humidified atmosphere of 5% CO2 and 95% air. For OGD/R treatment, H9c2 cells were cultured in glucose-free DMEM under hypoxic conditions (95%N2 + 5%CO2) for 4 h at 37 °C followed by complete medium under normal conditions with air (95%) and CO2 (5%) for 2 h. A control group was maintained under normal culture conditions (with glucose-containing DMEM and 5% CO2) without undergoing OGD/R treatment. CCK8 was used to assess cell viability. After treatment, H9c2 cells were seeded in 96-well plates, with each well supplemented with 10 μL of CCK-8 solution and then incubated for 1 h. Finally, the absorbance at 450 nm was detected by a microplate reader (Model […] 200 PRO, TECAN, Grodig, Austria).
When evaluating the cytotoxicities of the absorbed compounds, the H9c2 cells were seeded in 96-well plates at a density of 1 × 10^4 cells/well; when cells reached 80% confluence, […] Afterward, the protective effects were verified by assessing the cell viability when treating with different concentrations (1, 10, 25, 50, and 100 μM) of the analytes prior to OGD/R treatment.

[3] = system: OGD/R-induced H9c2 cells; assay: Protective effect on OGD/R-induced H9c2 cells (CCK-8 cell viability); format: cell-based, rat; details: 1, 10, 25, 50 and 100 μM prior to OGD/R, vs model group
Procedure: as §1
When evaluating the cytotoxicities of the absorbed compounds, the H9c2 cells were seeded in 96-well plates at a density of 1 × 10^4 cells/well; when cells reached 80% confluence, they were treated with 25 and 50 μM of the 24 analytes to screen the non-toxic concentration ranges. Afterward, the protective effects were verified by assessing the cell viability when treating with different concentrations (1, 10, 25, 50, and 100 μM) of the analytes prior to OGD/R treatment.

Compound: COC(=O)C1=CO[C@@H](O[C@@H]2O[C@H](CO)[C@@H](O)[C@H](O)[C@H]2O)[C@@H]2[C@@H](C)[C@H](O)C[C@H]12 [7-epi-loganin]
- Exposure level in vivo (in words) [1]: relatively lower exposure levels
- concentration at 0.5 h ([1]; plasma, oral): 1.73 ± 0.49 ng/mL
- concentration at 1 h ([1]; plasma, oral): 1.5 ± 0.298 ng/mL
- inhibition at 25 µM ([2]; 25 μM): 2.8 ± 0.9%
- inhibition at 50 µM ([2]; 50 μM): 7.1 ± 4.3%
- inhibition at 100 µM ([2]; 100 μM): 10.3 ± 3.5%
- H9c2 cell survival after OGD/R (in words) [3]: significantly improve H9c2 cell survival rates

Compound: COC[C@]12O[C@H]1[C@@H](O)[C@@H]1C=CO[C@@H](O[C@@H]3O[C@H](CO)[C@@H](O)[C@H](O)[C@H]3O)[C@@H]12 [10-methoxyl catalpol]
- Concentration ([1]; 0.5 h): 2.315 ± 0.283 ng/mL
- Concentration ([1]; 1 h): 1.293 ± 0.135 ng/mL
- Inhibition rate ([2]; 25 μM): 2.8 ± 0.9%
- Inhibition rate ([2]; 50 μM): 5.1 ± 4.3%
- Inhibition rate ([2]; 100 μM): 9.1 ± 4.2%

Compound: COc1ccc(CCO[C@@H]2O[C@H](CO[C@@H]3OC[C@H](O)[C@H](O)[C@H]3O)[C@@H](OC(=O)/C=C/c3ccc(O)c(OC)c3)[C@H](O[C@@H]3O[C@@H](C)[C@H](O)[C@@H](O)[C@H]3O)[C@H]2O)cc1O [Angoroside C]
- Concentration ([1]; 0.5 h): 4.290 ± 1.023 ng/mL
- Concentration ([1]; 1 h): 3.109 ± 0.501 ng/mL
- Concentration ([1]; 2 h): 1.029 ± 0.203 ng/mL
- Exposure level in vivo (in words) [1]: relatively lower exposure levels
- Inhibition rate ([2]; 25 μM): 3.6 ± 4.5%
- Inhibition rate ([2]; 50 μM): 12.7 ± 5.1%
- Inhibition rate ([2]; 100 μM): 18.7 ± 1.1%
- H9c2 cell survival after OGD/R (in words) [3]: significantly improve H9c2 cell survival rates

Compound: COc1ccc(-c2coc3cc(O[C@@H]4O[C@H](CO)[C@@H](O)[C@H](O)[C@H]4O)ccc3c2=O)cc1O [Calycosin-7-O-glucoside, Calycosin-7-O-D-glucoside]
- Concentration ([1]; 0.08 h): 1.161 ± 0.988 ng/mL
- Concentration ([1]; 0.17 h): 2.081 ± 1.576 ng/mL
- Concentration ([1]; 0.5 h): 8.612 ± 0.681 ng/mL
- Concentration ([1]; 1 h): 3.192 ± 1.624 ng/mL
- Concentration ([1]; 2 h): 3.096 ± 2.601 ng/mL
- Concentration ([1]; 4 h): 1.198 ± 1.103 ng/mL
- Concentration ([1]; 8 h): 1.241 ± 0.963 ng/mL
- Concentration ([1]; 12 h): 0.536 ± 0.271 ng/mL
- Inhibition rate ([2]; 25 μM): -1.2 ± 3.5%
- Inhibition rate ([2]; 50 μM): 7.8 ± 6.4%
- Inhibition rate ([2]; 100 μM): 11.8 ± 6.1%

Compound: COc1ccc(-c2coc3cc(O)ccc3c2=O)cc1O [Calycosin]
- concentration at 0.08 h ([1]; plasma, oral): 0.966 ± 0.737 ng/mL
- concentration at 0.17 h ([1]; plasma, oral): 2.15 ± 0.363 ng/mL
- concentration at 0.5 h ([1]; plasma, oral): 2.51 ± 0.672 ng/mL
- concentration at 1 h ([1]; plasma, oral): 1.7 ± 0.563 ng/mL
- concentration at 2 h ([1]; plasma, oral): 0.825 ± 0.375 ng/mL
- concentration at 4 h ([1]; plasma, oral): 0.589 ± 0.46 ng/mL
- concentration at 8 h ([1]; plasma, oral): 0.737 ± 0.203 ng/mL
- concentration at 12 h ([1]; plasma, oral): 0.647 ± 0.195 ng/mL
- inhibition at 25 µM ([2]; 25 μM): 6.8 ± 3.9%
- inhibition at 50 µM ([2]; 50 μM): 6.3 ± 8.3%
- inhibition at 100 µM ([2]; 100 μM): 9.3 ± 4.2%

Compound: COc1ccc(-c2coc3cc(O[C@@H]4O[C@H](CO)[C@@H](O)[C@H](O)[C@H]4O)ccc3c2=O)cc1 [Formononetin-7-O-glucoside, Formononetin-7-O-D-glucoside]
- Inhibition rate ([2]; 25 μM): 0.8 ± 0.9%
- Inhibition rate ([2]; 50 μM): 9.1 ± 4.3%
- Inhibition rate ([2]; 100 μM): 11.1 ± 2.3%

Compound: COC[C@@]12CC[C@H](OC)[C@]34C(C([C@H](OC)[C@H]13)[C@]1(OC(C)=O)[C@H]3[C@@H](OC(=O)c5ccccc5)[C@](O)(C[C@H]34)[C@@H](OC)[C@@H]1O)N(C)C2 [Hypaconitine]
- concentration at 0.08 h ([1]; in vivo): 0.048 ± 0.019 ng/mL
- concentration at 0.17 h ([1]; in vivo): 0.202 ± 0.096 ng/mL
- concentration at 0.5 h ([1]; in vivo): 0.308 ± 0.041 ng/mL
- concentration at 1 h ([1]; in vivo): 0.34 ± 0.066 ng/mL
- concentration at 2 h ([1]; in vivo): 0.331 ± 0.081 ng/mL
- concentration at 4 h ([1]; in vivo): 0.212 ± 0.084 ng/mL
- concentration at 8 h ([1]; in vivo): 0.071 ± 0.049 ng/mL
- concentration at 12 h ([1]; in vivo): 0.005 ± 0.013 ng/mL
- inhibition at 25 µM ([2]; 25 μM): 13.7 ± 4.1%
- inhibition at 50 µM ([2]; 50 μM): 20.8 ± 3.2%
- inhibition at 100 µM ([2]; 100 μM): 32.8 ± 1.2%

Compound: O=C(/C=C/c1ccc(O[C@@H]2O[C@H](CO)[C@@H](O)[C@H](O)[C@H]2O)cc1)c1ccc(O)cc1O [Isoliquiritin]
- concentration at 0.08 h ([1]; in vivo): 0.332 ± 0.496 ng/mL
- concentration at 0.17 h ([1]; in vivo): 1.24 ± 0.874 ng/mL
- concentration at 0.5 h ([1]; in vivo): 2.54 ± 0.684 ng/mL
- concentration at 1 h ([1]; in vivo): 1.31 ± 0.788 ng/mL
- concentration at 2 h ([1]; in vivo): 0.456 ± 0.573 ng/mL
- concentration at 4 h ([1]; in vivo): 0.075 ± 0.309 ng/mL
- concentration at 8 h ([1]; in vivo): 0.078 ± 0.159 ng/mL
- concentration at 12 h ([1]; in vivo): 0.158 ± 0.323 ng/mL
- inhibition at 25 µM ([2]; 25 μM): -18.3 ± 3.6%
- inhibition at 50 µM ([2]; 50 μM): 8.5 ± 2.9%
- inhibition at 100 µM ([2]; 100 μM): 13.5 ± 2.3%

Compound: O=C1C[C@@H](c2ccc(O)cc2)Oc2cc(O)ccc21 [Liquiritigenin]
- Concentration ([1]; 0.08 h): 1.163 ± 0.835 ng/mL
- Concentration ([1]; 0.17 h): 3.082 ± 0.977 ng/mL
- Concentration ([1]; 0.5 h): 4.378 ± 0.959 ng/mL
- Concentration ([1]; 1 h): 3.255 ± 1.246 ng/mL
- Concentration ([1]; 2 h): 2.336 ± 1.150 ng/mL
- Concentration ([1]; 4 h): 2.064 ± 0.888 ng/mL
- Concentration ([1]; 8 h): 2.239 ± 1.209 ng/mL
- Concentration ([1]; 12 h): 2.987 ± 1.135 ng/mL
- Inhibition rate ([2]; 25 μM): -4.4 ± 2.2%
- Inhibition rate ([2]; 50 μM): 2.3 ± 3.3%
- Inhibition rate ([2]; 100 μM): 8.5 ± 3.6%

Compound: O=C1C[C@@H](c2ccc(O[C@@H]3O[C@H](CO)[C@@H](O)[C@H](O)[C@H]3O)cc2)Oc2cc(O)ccc21 [Liquiritin]
- concentration at 0.08 h ([1]; plasma, oral): 2.07 ± 1.32 ng/mL
- concentration at 0.17 h ([1]; plasma, oral): 11.8 ± 10.9 ng/mL
- concentration at 0.5 h ([1]; plasma, oral): 26.8 ± 4.42 ng/mL
- concentration at 1 h ([1]; plasma, oral): 17.8 ± 5.29 ng/mL
- concentration at 2 h ([1]; plasma, oral): 8.3 ± 2.48 ng/mL
- concentration at 4 h ([1]; plasma, oral): 4.02 ± 3.3 ng/mL
- concentration at 8 h ([1]; plasma, oral): 2.17 ± 0.609 ng/mL
- concentration at 12 h ([1]; plasma, oral): 1.36 ± 2.74 ng/mL
- inhibition at 25 µM ([2]; 25 μM): -7.4 ± 7.5%
- inhibition at 50 µM ([2]; 50 μM): 11.6 ± 0.6%
- inhibition at 100 µM ([2]; 100 μM): 17.6 ± 1.2%

Compound: COC(=O)C1=CO[C@@H](O[C@@H]2O[C@H](CO)[C@@H](O)[C@H](O)[C@H]2O)[C@@H]2[C@H](C)O[C@@H](O)C[C@H]12 [Morroniside]
- Exposure level in vivo (in words) [1]: relatively lower exposure levels
- concentration at 0.5 h ([1]; plasma, oral): 3.05 ± 0.802 ng/mL
- concentration at 1 h ([1]; plasma, oral): 2.4 ± 0.829 ng/mL
- inhibition at 25 µM ([2]; 25 μM): -10.6 ± 7.6%
- inhibition at 50 µM ([2]; 50 μM): 2.1 ± 5.6%
- inhibition at 100 µM ([2]; 100 μM): 8.1 ± 3.9%
- H9c2 cell survival after OGD/R (in words) [3]: significantly improve H9c2 cell survival rates

Compound: C=C[C@H]1[C@H](O[C@@H]2O[C@H](CO)[C@@H](O)[C@H](O)[C@H]2O)OC=C(C(=O)O)[C@H]1CC(=O)O [Secologanoside]
- Concentration ([1]; 0.5 h): 4.124 ± 1.235 ng/mL
- Concentration ([1]; 1 h): 2.135 ± 1.024 ng/mL
- Concentration ([1]; 2 h): 1.274 ± 0.246 ng/mL
- Inhibition rate ([2]; 25 μM): -15.6 ± 7.9%
- Inhibition rate ([2]; 50 μM): 11.0 ± 7.7%
- Inhibition rate ([2]; 100 μM): 19.1 ± 3.7%

Compound: C=C[C@H]1[C@H](O[C@@H]2O[C@H](CO)[C@@H](O)[C@H](O)[C@H]2O)OC=C(C(=O)OC)[C@H]1CC(=O)O [Secoxyloganin]
- Inhibition rate ([2]; 25 μM): 3.5 ± 1.2%
- Inhibition rate ([2]; 50 μM): 7.9 ± 3.3%
- Inhibition rate ([2]; 100 μM): 9.9 ± 2.7%

Compound: Liquiritin apioside
- Inhibition rate ([2]; 25 μM): -25.2 ± 3.5%
- Inhibition rate ([2]; 50 μM): -16.2 ± 3.6%
- Inhibition rate ([2]; 100 μM): -6.1 ± 2.5%
- H9c2 cell survival after OGD/R (in words) [3]: significantly improve H9c2 cell survival rates
